Assay results: patent US10112933B2, “Methods and compositions for treatment of fibrosis” (Baylor College of Medicine, priority 2013, dated 2018)

Legend:
[1] = molecular target: T1, Stat3:hSIE complex (Homo sapiens, UniProt P40763); assay: Electrophoretic mobility shift assay (Stat3 DNA binding, hSIE probe); assay type: biochemical; conditions: extracts of IL-6-stimulated HepG2 cells, compound 300 μM
T1 construct: endogenous in cells; host or cells: HepG2
Procedure: Electrophoretic mobility shift assays were performed using whole-cell extracts prepared from HepG2 cells without and with stimulation with IL-6 (30 ng/ml) for 30 min. Protein (20 μg) was incubated with radiolabeled duplex oligonucleotide (hSIE) and DMSO without or with the indicated compounds (300 uM) for 60 minutes at 37° C. then separated by PAGE. The gel was dried and autoradiographed; the portion of the gel corresponding to the Stat3-bound hSIE band is shown. Data shown are representative of 2 studies.
Electrophoretic Mobility Shift Assay (EMSA): EMSA was performed using the hSIE radiolabeled duplex oligonucleotide as a probe as described (Tweardy et al., 1995). Briefly, high salt extracts were prepared from HepG2 cells incubated without or with IL-6 (30 ng/ml) for 30 minutes. Protein concentration was determined by Bradford Assay and 20 ug of extract was incubated with compound (300 uM) for 60 minutes at 37° C. […] Gels were dried and autoradiographed.
Once in the nucleus, Stat3 dimers bind to specific DNA elements to activate and, in some instances, repress gene transcription. […] Compounds that bind to the phosphopeptide-binding site of Stat3 might be expected to do the same. […]

[2] = test system: breast cancer cell lines (MDA-MB-468, MDA-MB-231, MBA-MD-435, MCF7, MDA-MB-453); assay: Breast cancer cell line apoptosis assay (nucleosome ELISA); assay type: cell-based, human
Procedure: Breast cancer cell line apoptosis assay. Human breast carcinoma cell lines MDA-MB-468, MDA-MB-231, MBA-MD-435 and MCF7 were kindly provided by Dr. Powel H. Brown (Breast Cancer Center, Baylor College of Medicine). Breast cancer cell line, MDA-MB-453 was kindly provided by Dr. Shou Jiang (Breast Cancer Center, Baylor College of Medicine). All cell lines were grown in DMEM medium supplemented with 10% fetal bovine serum (FBS), 25,000 units penicillin G, 25,000 ug streptomycin, and 131.4 mg L-Glutamine and cultured in the incubator under the condition of 95% air, 5% CO2 at 37° C. (Garcia et al., 2001). Cells were seeded at 2,500 cells/cm^2 into 12-well plates. At 80% confluency, cells were washed with PBS and supplemented with fresh medium containing compound or the topoisomerase I-inhibitor, camptothecin, at 0, 0.1, 03, 1, 3, 10, 30, 100, 300 μM. At 24 hours, treatment was terminated by removing the medium from each well. Cells were lysed with cell lysis buffer ([…] for 30 minutes at 25° C.). Cell lysate (200 μl) was centrifuged at 200×g for 10 minutes and […] of each supernatant was assayed for nucleosomes using the Cell Death Detection ELISA (Roche Applied Science) as described by the manufacturer. The percent maximum nucleosome level was calculated by dividing the nucleosome level by the maximum nucleosome level achieved in the assay and multiplying by 100. This value was plotted as a function of the log compound concentration and the best-fitting curve generated using 4-Parameter Logistic Model/Dose Response/XLfit 4.2, IDBS software.

T1 sequence (P40763 2-770 limits assumed, one chain of several): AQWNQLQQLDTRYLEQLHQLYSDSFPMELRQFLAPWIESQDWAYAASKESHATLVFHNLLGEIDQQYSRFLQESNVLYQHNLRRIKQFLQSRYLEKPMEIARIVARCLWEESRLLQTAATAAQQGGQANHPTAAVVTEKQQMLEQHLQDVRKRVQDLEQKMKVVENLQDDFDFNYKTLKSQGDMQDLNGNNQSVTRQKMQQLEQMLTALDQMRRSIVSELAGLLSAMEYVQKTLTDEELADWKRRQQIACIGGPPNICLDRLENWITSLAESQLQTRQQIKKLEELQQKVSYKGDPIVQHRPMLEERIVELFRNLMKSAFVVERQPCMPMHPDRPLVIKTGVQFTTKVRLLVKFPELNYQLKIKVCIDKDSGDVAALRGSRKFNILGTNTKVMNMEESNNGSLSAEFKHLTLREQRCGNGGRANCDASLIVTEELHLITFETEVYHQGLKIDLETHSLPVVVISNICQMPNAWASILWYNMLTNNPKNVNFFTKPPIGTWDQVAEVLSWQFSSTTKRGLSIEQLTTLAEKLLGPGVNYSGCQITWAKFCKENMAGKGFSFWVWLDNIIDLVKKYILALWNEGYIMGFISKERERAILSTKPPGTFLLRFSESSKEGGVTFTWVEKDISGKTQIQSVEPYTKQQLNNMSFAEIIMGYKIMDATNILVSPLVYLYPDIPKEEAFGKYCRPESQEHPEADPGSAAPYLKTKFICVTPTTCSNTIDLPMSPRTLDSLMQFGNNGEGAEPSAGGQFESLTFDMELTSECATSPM

O=C(O)c1ccc(C=CC(=O)c2ccc3c(c2)OCCO3)cc1 [Cpd3, 4-[3-(2,3-dihydro-1,4-benzodioxin-6-yl)-3-oxo-1-propen-1-yl]benzoic acid]
amount of hSIE shifted (Stat3:hSIE band intensity) [1]: reduced the amount of hSIE shifted by half or greater
apoptosis of breast cancer cell lines with constitutive Stat3 activation [2]: induced apoptosis preferentially
